This note sets out measurements from ChEMBL document CHEMBL2375296, “BCR-ABL tyrosine kinase inhibitor pharmacophore model derived from a series of phenylaminopyrimidine-based (PAP) derivatives” (Bioorg Med Chem Lett, 2013).

SMILES strings stand for the structures.

Bcr/Abl fusion protein, sequence (P00519 whole entry, the tested form may be a part): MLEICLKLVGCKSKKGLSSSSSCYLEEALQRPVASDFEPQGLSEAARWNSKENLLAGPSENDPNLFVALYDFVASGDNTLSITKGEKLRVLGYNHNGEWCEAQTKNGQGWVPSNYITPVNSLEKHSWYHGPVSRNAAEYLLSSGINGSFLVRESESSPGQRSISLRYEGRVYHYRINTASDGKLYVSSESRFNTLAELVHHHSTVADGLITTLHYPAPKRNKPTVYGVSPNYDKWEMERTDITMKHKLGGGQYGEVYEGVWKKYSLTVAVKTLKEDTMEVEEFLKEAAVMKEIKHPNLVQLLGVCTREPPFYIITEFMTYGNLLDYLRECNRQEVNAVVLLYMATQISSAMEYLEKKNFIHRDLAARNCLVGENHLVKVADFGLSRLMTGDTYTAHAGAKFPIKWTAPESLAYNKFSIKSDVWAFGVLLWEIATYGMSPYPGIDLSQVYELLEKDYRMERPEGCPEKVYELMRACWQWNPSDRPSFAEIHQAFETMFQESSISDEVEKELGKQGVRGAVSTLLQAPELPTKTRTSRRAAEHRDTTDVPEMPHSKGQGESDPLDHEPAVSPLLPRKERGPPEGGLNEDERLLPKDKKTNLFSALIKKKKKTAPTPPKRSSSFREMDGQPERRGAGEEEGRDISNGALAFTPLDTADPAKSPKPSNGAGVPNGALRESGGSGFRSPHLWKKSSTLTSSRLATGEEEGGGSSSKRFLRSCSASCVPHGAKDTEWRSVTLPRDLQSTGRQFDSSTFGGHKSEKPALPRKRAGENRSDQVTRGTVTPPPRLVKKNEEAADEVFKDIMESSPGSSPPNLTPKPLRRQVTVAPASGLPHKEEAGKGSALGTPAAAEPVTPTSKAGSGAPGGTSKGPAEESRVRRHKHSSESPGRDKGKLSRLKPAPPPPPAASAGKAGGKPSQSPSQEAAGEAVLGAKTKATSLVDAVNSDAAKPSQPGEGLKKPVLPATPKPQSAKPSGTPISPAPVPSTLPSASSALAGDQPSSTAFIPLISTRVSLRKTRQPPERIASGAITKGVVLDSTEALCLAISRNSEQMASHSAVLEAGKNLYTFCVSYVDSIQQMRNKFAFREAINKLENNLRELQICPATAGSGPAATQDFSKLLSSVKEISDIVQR
Bcr/Abl fusion protein, sequence (P11274 whole entry, further chain, the tested form may be a part): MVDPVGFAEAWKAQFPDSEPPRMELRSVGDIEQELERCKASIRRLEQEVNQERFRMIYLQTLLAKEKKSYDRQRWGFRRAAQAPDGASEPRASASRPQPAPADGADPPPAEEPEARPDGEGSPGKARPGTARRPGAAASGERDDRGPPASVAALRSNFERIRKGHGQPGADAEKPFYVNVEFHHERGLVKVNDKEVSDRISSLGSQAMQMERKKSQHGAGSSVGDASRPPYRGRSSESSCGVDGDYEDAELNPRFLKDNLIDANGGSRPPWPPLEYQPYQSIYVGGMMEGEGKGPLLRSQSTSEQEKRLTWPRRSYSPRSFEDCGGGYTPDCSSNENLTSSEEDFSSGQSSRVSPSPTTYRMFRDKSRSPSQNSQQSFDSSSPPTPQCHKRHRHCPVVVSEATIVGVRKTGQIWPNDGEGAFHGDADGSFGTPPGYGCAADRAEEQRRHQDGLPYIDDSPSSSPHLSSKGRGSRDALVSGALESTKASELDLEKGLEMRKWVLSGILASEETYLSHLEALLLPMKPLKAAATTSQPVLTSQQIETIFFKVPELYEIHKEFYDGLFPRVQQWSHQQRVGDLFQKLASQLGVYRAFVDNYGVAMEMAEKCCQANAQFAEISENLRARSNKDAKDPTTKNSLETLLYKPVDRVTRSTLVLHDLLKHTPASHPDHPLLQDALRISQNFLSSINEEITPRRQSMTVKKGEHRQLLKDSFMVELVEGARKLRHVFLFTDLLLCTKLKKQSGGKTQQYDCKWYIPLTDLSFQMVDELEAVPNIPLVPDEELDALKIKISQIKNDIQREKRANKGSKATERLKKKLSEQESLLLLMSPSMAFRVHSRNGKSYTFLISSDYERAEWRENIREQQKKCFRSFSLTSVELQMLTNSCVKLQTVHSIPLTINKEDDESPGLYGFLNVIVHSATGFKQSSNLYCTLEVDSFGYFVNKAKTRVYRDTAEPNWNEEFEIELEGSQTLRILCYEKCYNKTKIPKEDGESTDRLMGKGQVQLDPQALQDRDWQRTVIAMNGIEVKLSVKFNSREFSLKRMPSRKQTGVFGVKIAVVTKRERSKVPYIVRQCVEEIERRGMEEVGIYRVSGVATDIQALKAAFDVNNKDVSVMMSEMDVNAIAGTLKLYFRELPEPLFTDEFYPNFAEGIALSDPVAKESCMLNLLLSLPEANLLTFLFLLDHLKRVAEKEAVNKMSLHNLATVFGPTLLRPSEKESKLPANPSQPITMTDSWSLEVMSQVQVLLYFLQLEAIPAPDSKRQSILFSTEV

This test has as its target Bcr/Abl fusion protein (Homo sapiens, UniProt P00519). The experiment in a line: Inhibition of BCR-ABL kinase (unknown origin). Type of test: protein assay.
One may read the IC50 as the concentration that gives 50% inhibition. Read a low IC50 as greater potency in that assay. Regarding `O=C(Nc1cccc(Nc2nccc(-c3cccnc3)n2)c1)C1=CC=CCC1=S`, the IC50 is 302 nM. As to `O=C(Nc1cccc(Nc2nccc(-c3cccnc3)n2)c1)c1ccccn1`, it took 3800 nM to reach half-maximal inhibition (IC50). Molecule `NCCCn1ccc2c(-c3ccnc(Nc4cccc(OC(F)(F)C(F)F)c4)n3)cccc21` gave a half-inhibitory concentration (IC50) of 347 nM.

Turning to `COc1ccccc1C(=O)Nc1cccc(Nc2nccc(-c3cccnc3)n2)c1`, the IC50 was 1910 nM. On to `NCCCCNC(=O)c1cccc(Nc2nccc(-c3cccnc3)n2)c1`, for which the half-inhibitory concentration (IC50) is 398 nM. Take `COc1ccccc1C(=O)Nc1ccc(C)c(Nc2nccc(-c3cccnc3)n2)c1`: half-maximal inhibition (IC50) required 794 nM. Consider `O=C(Nc1cccc(Nc2nccc(-c3cccnc3)n2)c1)c1ccccc1`, for which 398 nM corresponded to half-maximal inhibition (IC50). For `CN1CCN(Cc2ccc(C(=O)Nc3cccc(Nc4nccc(-c5cccnc5)n4)c3)cc2)CC1` the value was 100 nM; for `O=C(O)c1cccc(Nc2nccc(-c3cccnc3)n2)c1`, 7940 nM; for `Cc1ccc(NC(=O)c2ccc(Cl)cc2)cc1Nc1nccc(-c2cccnc2)n1`, 794 nM. For `N#Cc1ccc(C(=O)Nc2cccc(Nc3nccc(-c4cccnc4)n3)c2)cc1` the value was 1290 nM. For `Cc1ccc(NC(=O)c2ccccc2)cc1Nc1nccc(-c2cccnc2)n1` the value was 398 nM; for `c1cc(CCN2CCOCC2)cc(Nc2nccc(-c3cccnc3)n2)c1`, 10000 nM. `CC(C)(NC(=O)c1cc2c(NC(=O)c3ccc(CN4CCCCC4)cc3)n[nH]c2s1)c1ccccc1`: the half-inhibitory concentration (IC50) is 20.9 nM.

With `FC(F)C(F)(F)Oc1cccc(Nc2nccc(-c3c[nH]c4ccccc34)n2)c1`, the half-maximal inhibitory concentration (IC50) was 372 nM. In turn, `CCN(CC)c1ccc(NC(=O)Nc2ccc(C)c(Nc3nccc(-c4cccnc4)n3)c2)cc1` showed a half-maximal inhibitory concentration (IC50) of 10000 nM. Regarding `CC(=O)Nc1ccc(C)c(Nc2nccc(-c3cccnc3)n2)c1`, the IC50 is 5750 nM.

With `Cc1ccc(NC(=O)c2ccc(CN3CCN(C)CC3)c(Cl)c2)cc1Nc1nccc(-c2cccnc2)n1`, the 50% inhibitory concentration (IC50) was 10 nM. `FC(F)C(F)(F)Oc1cccc(Nc2nccc(-c3ccncc3)n2)c1` showed an IC50 of 100000 nM.

The molecule `c1cncc(-c2ccnc(Nc3cccc(-n4ccnc4)c3)n2)c1` showed an IC50 of 3310 nM. Next, `c1cc(Nc2nccc(-c3cccnc3)n2)cc(OCCn2ccnc2)c1`: 1000 nM. With `Cc1ccc(NC(=O)N2CCN(C)CC2)cc1Nc1nccc(-c2cccnc2)n1`, the IC50 was 5010 nM.

In the case of `CCCCCCC(=O)Nc1cccc(Nc2nccc(-c3cccnc3)n2)c1`, the 50% inhibitory concentration (IC50) was 200 nM.

Turning to `CCC(=O)Nc1ccc(Sc2nc(Nc3cc(C)[nH]n3)cc(N3CCN(C)CC3)n2)cc1`, half-maximal inhibition (IC50) was put at 603 nM. For the molecule `Cc1ccc(NC(=O)c2ccc(CN3CC(N(C)C)C3)c(C(F)(F)F)c2)cc1Nc1nccc(-c2cncnc2)n1`, the IC50 is 17 nM. For `Cc1ccc(-c2ccnc(Nc3cccc(OC(F)(F)C(F)F)c3)n2)cc1` the value was 50100 nM. For the molecule `Cc1ccc(NC(=O)c2ccc3ccccc3c2)cc1Nc1nccc(-c2cccnc2)n1`, the concentration for half-maximal inhibition (IC50) is 200 nM. Next, `O=C(Nc1cccc(Nc2nccc(-c3cccnc3)n2)c1)c1ccncc1`: 501 nM; `Cc1ccc(NC(=O)c2ccc(CN3CCN(C)CC3)c(I)c2)cc1Nc1nccc(-c2cccnc2)n1`: 10 nM; `Nc1cccc(Nc2nccc(-c3ccncc3)n2)c1`: 603 nM.

`Cc1ccc(NC(=O)NCCN2CCCC2)cc1Nc1nccc(-c2cccnc2)n1` gave a concentration for half-maximal inhibition (IC50) of 8910 nM. For `COCCN(C)/N=N/c1ccc(C(=O)Nc2cccc(Nc3nccc(-c4cccnc4)n3)c2)cc1` the value was 33200 nM; for `Cc1ccc(NC(=O)NCc2cccc(Cl)c2)cc1Nc1nccc(-c2cccnc2)n1`, 1000 nM.

As to `Cc1cccc(Nc2nccc(-c3cccnc3)n2)c1`, inhibition was half-maximal at 1820 nM (IC50).

On to `Nc1cccc(Nc2nccc(-c3cccnc3)n2)c1`, for which the IC50 was 708 nM.

For `O=C(Nc1cccc(Nc2nccc(-c3cccnc3)n2)c1)c1cccnc1`, the IC50 was 151 nM. As to `Cc1ccc(NC(=O)c2ccc(/N=N/N(C)CCCl)cc2)cc1Nc1nccc(-c2cccnc2)n1`, half-maximal inhibition (IC50) required 17400 nM. For the molecule `Cc1ccc(C(=O)Nc2cccc(Nc3nccc(-c4cccnc4)n3)c2)cc1`, half-maximal inhibition (IC50) was put at 1000 nM. For `CN1CCN(c2ccc(C(=O)Nc3[nH]nc4c3CN(C(=O)Cc3cccs3)C4)cc2)CC1` the value was 64.6 nM; for `Cc1ccc(NC(=O)c2ccc(CN3CCC(CN(C)C)C3)c(C(F)(F)F)c2)cc1Nc1nccc(-c2cncnc2)n1` (stereo not drawn), 11 nM; for `COC(=O)c1cccc(Nc2nccc(-c3cccnc3)n2)c1`, 5130 nM.

On to `Clc1cccc(Nc2nccc(-c3cccnc3)n2)c1`, for which the concentration for half-maximal inhibition (IC50) is 1510 nM.

The molecule `COCCN/N=N/c1cccc(Nc2cc(-c3cccnc3)ncn2)c1` gave a 50% inhibitory concentration (IC50) of 5370 nM. Next, `Cc1ccc(NC(=O)Nc2cccc(N(C)C)c2)cc1Nc1nccc(-c2cccnc2)n1`: 575 nM; `Cc1ccc(NC(=O)c2ccc(CN3CCC(N(C)C)C3)c(C(F)(F)F)c2)cc1Nc1nccc(-c2cncnc2)n1` (stereo not drawn): 3.98 nM. With `O=[N+]([O-])c1cccc(Nc2nccc(-c3cccnc3)n2)c1`, the IC50 is 33900 nM.

`CCN(CC)c1cccc(NC(=O)Nc2ccc(C)c(Nc3nccc(-c4cccnc4)n3)c2)c1` gave an IC50 of 1000 nM.

`CN1CCN(c2ccc(C(=O)Nc3n[nH]c4sc(C(=O)NC(C)(C)c5ccccc5)cc34)cc2)CC1` showed an IC50 of 4.07 nM.

As to `Cc1ccc(NC(=O)c2ccc(N)cc2)cc1Nc1nccc(-c2cccnc2)n1`, the IC50 was 67600 nM. For the molecule `O=C(Nc1cccc(Nc2nccc(-c3cccnc3)n2)c1)c1ccc(F)cc1`, inhibition was half-maximal at 200 nM (IC50). `Cc1ccc(NC(=O)c2ccc(/N=N/N(C)C)cc2)cc1Nc1nccc(-c2cccnc2)n1`: 2190 nM corresponded to half-maximal inhibition (IC50).

As for `Cc1ccc(N)cc1Nc1nccc(-c2cccnc2)n1`, the concentration for half-maximal inhibition (IC50) was 1510 nM. For `O=C(Nc1cccc(Nc2nccc(-c3cccnc3)n2)c1)C1CCCCC1` the value was 447 nM; for `Nc1ccc(C(=O)Nc2cccc(Nc3nccc(-c4cccnc4)n3)c2)cc1`, 9770 nM. The molecule `O=[N+]([O-])c1cccc(Nc2nccc(-c3ccccn3)n2)c1` gave an IC50 of 1200 nM. The molecule `O=C(O)c1ccccc1C(=O)Nc1cccc(Nc2nccc(-c3cccnc3)n2)c1` gave an IC50 of 2000 nM. The molecule `Cc1ccc(NC(=O)Nc2ccc(N(C)C)cc2)cc1Nc1nccc(-c2cccnc2)n1` had an IC50 of 10000 nM. For `O=[N+]([O-])c1cccc(Nc2nccc(-c3ccncc3)n2)c1` the value was 61700 nM.
